How the values were obtained:
[1] = Sample appearance on sample preparation in water; type: physicochemical; conditions: 1 mL of water was added to 1 mg solid
H460 (lung carcinoma) = assay: Cancer screening, MTT growth inhibition; type: cell-based; conditions: for inhibition at 25 µM / GI50: Homo sapiens; for inhibition at 25 µM: NCI-H460, 25 µM of drug, read-out: DOSE SCREEN percentage (%) cell growth inhibition H460 Lung; for GI50: NCI-H460, 72 h, read-out: DOSE RESPONSE GI50 H460 Lung
Experimental: (§1) For Table 4, all test agents were prepared as stock solutions ([…]) in dimethyl sulfoxide (DMSO) and stored at −20 °C. Cell lines used in the study included HT29 (colorectal carcinoma), A2780 (ovarian carcinoma), H460 (lung carcinoma), A431 (skin carcinoma), MiaPaCa-2 (pancreatic carcinoma), and SMA560 (spontaneous murine astrocytoma), together with MCF10A (non-tumour derived normal breast cell line). Cell line sources: the HT29, H460, and MiaPaCa-2, together with MCF10A were purchased from ATCC. The A2780 and A431 were purchased from the European Collection of Cell Culture (ECACC). All cell lines were incubated in a humidified atmosphere 5% CO2 at 37 °C. The cancer cell lines were maintained in Dulbecco’s modified Eagle’s medium (DMEM; Sigma, Truganina, Australia) supplemented with foetal bovine serum (10%), sodium pyruvate ([…]), penicillin (100 IUmL^−1), streptomycin (100 µg mL^−1), and L-glutamine ([…]).
(§2) Growth inhibition was determined by plating cells in duplicate in medium (100 µL) at a density of 2500–4000 cells per well in 96-well plates. On day 0 (24 h after plating), when the cells are in logarithmic growth, medium (100 µL) with or without the test agent was added to each well. […] Each data point is the mean ± the standard error of the mean (SEM) calculated from three replicates which were performed on separate occasions and separate cell line passages.

[2] = system: HT29 (colorectal carcinoma); assay: Cancer screening, MTT growth inhibition; type: cell-based; conditions: for inhibition at 25 µM / GI50: Homo sapiens; for inhibition at 25 µM: HT-29, 25 µM of drug, read-out: DOSE SCREEN percentage (%) cell growth inhibition HT29 Colon; for GI50: HT-29, 72 h, read-out: DOSE RESPONSE GI50 HT29 Colon
Experimental: as §1, §2

A431 (skin carcinoma) = assay: Cancer screening, MTT growth inhibition; type: cell-based; conditions: for inhibition at 25 µM / GI50: Homo sapiens; for inhibition at 25 µM: A-431, 25 µM of drug, read-out: DOSE SCREEN percentage (%) cell growth inhibition A431 Skin; for GI50: A-431, 72 h, read-out: DOSE RESPONSE GI50 A431 Skin
Experimental: as §1, §2

[3] = system: A2780 (ovarian carcinoma); assay: Cancer screening, MTT growth inhibition; type: cell-based; conditions: for inhibition at 25 µM / GI50: Homo sapiens; for inhibition at 25 µM: A2780, 25 µM of drug, read-out: DOSE SCREEN percentage (%) cell growth inhibition A2780 Ovarian; for GI50: A2780, 72 h, read-out: DOSE RESPONSE GI50 A2780 Ovarian
Experimental: as §1, §2

[4] = system: MIA-Pa-Ca2 (pancreatic carcinoma); assay: Cancer screening, MTT growth inhibition; type: cell-based; conditions: for inhibition at 25 µM / GI50: Homo sapiens; for inhibition at 25 µM: MIA PaCa-2, 25 µM of drug, read-out: DOSE SCREEN percentage (%) cell growth inhibition MIA-Pa-Ca2 Pancreatic; for GI50: MIA PaCa-2, 72 h, read-out: DOSE RESPONSE GI50 MIA-Pa-Ca2 Pancreatic
Experimental: as §1, §2

β-D-glucosidase (almond) = assay: Glycosidase inhibition (Table 3 panel); type: biochemical; conditions: 1 mg/mL aqueous solution; run in water
Experimental: (§3) All enzymes and para-nitrophenyl substrates were purchased from Sigma. Enzymes were assayed at 27 °C in citric acid (0.1 M)/disodium hydrogen phosphate (0.2 M) buffers at the optimum pH for the enzyme. The incubation mixture consisted of […] of 1 mg/mL aqueous solution of extract and […] of the appropriate […] para-nitrophenyl substrate made up in buffer at the optimum pH for the enzyme. The reactions were stopped by addition of […] 0.4 M glycine (pH 10.4) during the exponential phase of the reaction, which had been determined at the beginning using uninhibited assays in which water replaced the inhibitor. Final absorbances were read at 405 nm using a Versamax microplate reader (Molecular Devices, Wokingham, UK). Assays were carried out in triplicate, and the values given are means of the three replicates per assay. All reactions were run in water.

[5] = system: β-D-glucuronidase (bovine liver); assay: Glycosidase inhibition (Table 3 panel); type: biochemical; conditions: 1 mg/mL aqueous solution; run in water
Experimental: as §3

[6] = system: MCF10A (non-tumour derived normal breast cell line); assay: Cancer screening, MTT growth inhibition; type: cell-based; conditions: 72 h; for inhibition at 25 µM / GI50: Homo sapiens, MCF-10A; for inhibition at 25 µM: read-out: DOSE SCREEN percentage (%) cell growth inhibition MCF10A Breast (normal); for GI50: read-out: DOSE RESPONSE GI50 MCF10A Breast (normal)
α-D-glucosidase (yeast) = molecular target: T1, α-D-glucosidase (yeast) (Saccharomyces cerevisiae, UniProt P53341); assay: Glycosidase inhibition (Table 3 panel); type: biochemical; conditions: 1 mg/mL aqueous solution, run in water; for inhibition at 1000 µg/mL (stock): read-out: Percentage inhibition α-D-Glucosidase Yeast
T1 construct: purchased Sigma-Aldrich
Experimental: All enzymes and para-nitrophenyl substrates were purchased from Sigma. Enzymes were assayed at 27 °C in citric acid (0.1 M)/disodium hydrogen phosphate (0.2 M) buffers at the optimum pH for the enzyme. The incubation mixture consisted of […] of 1 mg/mL aqueous solution of extract and […] of the appropriate 5 μM para-nitrophenyl substrate made up in buffer at the optimum pH for the enzyme. […] Assays were carried out in triplicate, and the values given are means of the three replicates per assay. All reactions were run in water.

T1 sequence (P53341 whole entry): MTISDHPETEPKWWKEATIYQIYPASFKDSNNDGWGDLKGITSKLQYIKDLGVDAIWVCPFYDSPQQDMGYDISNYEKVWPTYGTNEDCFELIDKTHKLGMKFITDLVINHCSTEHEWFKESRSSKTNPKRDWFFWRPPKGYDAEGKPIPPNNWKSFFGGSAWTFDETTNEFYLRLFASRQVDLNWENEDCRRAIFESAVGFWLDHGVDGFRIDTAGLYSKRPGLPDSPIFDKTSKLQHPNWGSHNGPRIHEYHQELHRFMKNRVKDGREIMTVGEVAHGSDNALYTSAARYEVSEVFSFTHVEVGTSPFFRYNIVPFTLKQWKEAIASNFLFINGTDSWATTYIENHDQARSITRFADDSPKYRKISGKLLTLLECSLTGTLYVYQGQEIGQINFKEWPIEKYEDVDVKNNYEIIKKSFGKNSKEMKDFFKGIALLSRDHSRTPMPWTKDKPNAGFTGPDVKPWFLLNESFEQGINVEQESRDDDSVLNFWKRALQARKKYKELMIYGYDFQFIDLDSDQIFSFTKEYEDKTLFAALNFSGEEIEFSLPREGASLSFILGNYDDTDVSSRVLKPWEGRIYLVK

Row | Compound | Sample Appearance [1] | inhibition at 25 µM (H460 (lung carcinoma); 72 h) | inhibition at 25 µM ([2]; 72 h) | inhibition at 25 µM (A431 (skin carcinoma); 72 h) | inhibition at 25 µM ([3]; 72 h) | inhibition at 25 µM ([4]; 72 h) | Percentage inhibition β-D-Glucosidase Almond (β-D-glucosidase (almond)) | Percentage inhibition β-D-Glucuronidase Bovine Liver [5] | inhibition at 25 µM ([6]; 25 µM of drug) | Percentage inhibition α-D-Glucosidase Yeast (α-D-glucosidase (yeast)) | inhibition at 1000 µg/mL (stock) (α-D-glucosidase (yeast)) | GI50 (H460 (lung carcinoma)) | GI50 [2] | GI50 (A431 (skin carcinoma)) | GI50 [3] | GI50 [4] | GI50 [6] | also measured
1 | N[C@@H](Cc1ccc(B(O)O)cc1)C(=O)O [BPA, 4-borono-L-phenylalanine, reference compound] | Some in solution with undissolved sediment | 7% | 14% | 4% | 4% | 3% | 3.9% | −0.7% | 4% | – | – | – | – | – | – | – | – | –
2 | N[C@@H](Cc1ccc(B(O)O)cc1)C(=O)O [^10B-BPA, reference compound] | Some in solution with undissolved sediment | – | – | – | – | – | 3% | −1% | – | 3.4% | – | – | – | – | – | – | – | DOSE SCREEN percentage (%) cell growth inhibition H460 Lung (H460 (lung carcinoma); 25 µM of drug, 72 h): * 8 ± 5%; DOSE SCREEN percentage (%) cell growth inhibition HT29 Colon ([2]; 25 µM of drug, 72 h): * 15 ± 4%; DOSE SCREEN percentage (%) cell growth inhibition A431 Skin (A431 (skin carcinoma); 25 µM of drug, 72 h): * 4 ± 4%; DOSE SCREEN percentage (%) cell growth inhibition A2780 Ovarian ([3]; 25 µM of drug, 72 h): * 8 ± 4%; DOSE SCREEN percentage (%) cell growth inhibition MIA-Pa-Ca2 Pancreatic ([4]; 25 µM of drug, 72 h): * 11 ± 3%; DOSE SCREEN percentage (%) cell growth inhibition MCF10A Breast (normal) ([6]; 25 µM of drug): * <0%
3 | CC1(C)O[C@H]2O[C@H]3[C@@H]([C@H]2O1)N(Cc1cccc(B2OC(C)(C)C(C)(C)O2)c1)C[C@H]3O [meta 2, N-(3-Methylphenylboronic acid pinacol ester)-3,6-dideoxy-3,6-imino-1,2-O-isopropylidene-α-D-gulofuranose] | In solution | 5 ± 2% | 1 ± 10% | 8 ± 6% | 25 ± 2% | 19 ± 8% | 13.2% | 9.9% | 6 ± 4% | 7.9% | 9.3% | > 50 µM | > 50 µM | > 50 µM | > 50 µM | > 50 µM | > 50 µM | –
4 | OB(O)c1cccc(CN2C[C@@H](O)[C@H]3OC(O)[C@H](O)[C@H]32)c1 (stereo partly drawn) [meta 3, N-(3-Methylphenylboronic acid)-3,6-dideoxy-3,6-imino-D-gulofuranose] | In solution | 2 ± 2% | < 0% | 3% | 18 ± 1% | 17 ± 4% | 61.7% | 13.3% | 6 ± 4% | – | -16.7% | > 50 µM | > 50 µM | > 50 µM | > 50 µM | > 50 µM | > 50 µM | –
5 | OC[C@H](O)[C@@H]1[C@H](O)[C@H](O)CN1Cc1cccc(B(O)O)c1 [meta 4, N-(3-Methylphenylboronic acid)-1,4-dideoxy-1,4-imino-L-gulitol] | In solution | 7 ± 1% | < 0% | 6 ± 1% | 18 ± 5% | 16 ± 5% | 47.9% | −2.7% | 14 ± 13% | – | 23.5% | > 50 µM | > 50 µM | > 50 µM | > 50 µM | > 50 µM | > 50 µM | –
6 | CC1(C)O[C@H]2O[C@H]3[C@@H]([C@H]2O1)N(Cc1cccc(B(O)O)c1)C[C@H]3O [meta 5, N-(3-Methylphenylboronic acid)-3,6-dideoxy-3,6-imino-1,2-O-isopropylidene-α-D-glucofuranose] | In solution | 10 ± 2% | < 0% | 8 ± 8% | 32 ± 7% | 16 ± 1% | 7.7% | −0.9% | 7 ± 4% | 13.7% | 14.8% | > 50 µM | > 50 µM | > 50 µM | > 50 µM | > 50 µM | > 50 µM | –
7 | CC1(C)O[C@H]2O[C@H]3[C@@H]([C@H]2O1)N(Cc1cccc(O)c1)C[C@H]3O [meta 6] | In solution | 6 ± 3% | 4 ± 3% | 4 ± 9% | 23 ± 6% | 12 ± 4% | 0.7% | 3.6% | 4 ± 2% | – | 6.6% | > 50 µM | > 50 µM | > 50 µM | > 50 µM | > 50 µM | > 50 µM | –
8 | CC1(C)O[C@H]2O[C@H]3[C@@H]([C@H]2O1)N(Cc1ccccc1B1OC(C)(C)C(C)(C)O1)C[C@H]3O [ortho 2, N-(2-Methylphenylboronic acid pinacol ester)-3,6-dideoxy-3,6-imino-1,2-O-isopropylidene-α-D-gulofuranose] | In solution | 11 ± 4% | 7% | 10 ± 5% | 7 ± 2% | 9 ± 7% | 73.3% | −1.8% | 9 ± 4% | – | -2% | > 50 µM | > 50 µM | > 50 µM | > 50 µM | > 50 µM | > 50 µM | –
9 | OB(O)c1ccccc1CN1C[C@@H](O)[C@H]2OC(O)[C@H](O)[C@H]21 (stereo partly drawn) [ortho 3, N-(2-Methylphenylboronic acid)-3,6-dideoxy-3,6-imino-D-gulofuranose] | In solution | 2 ± 1% | < 0% | 3 ± 1% | 17 ± 2% | 5 ± 5% | 68.6% | 1.3% | 9 ± 7% | – | 4.1% | > 50 µM | > 50 µM | > 50 µM | > 50 µM | > 50 µM | > 50 µM | –
